Results: paper PMC10650850, “Discovery, Structure–Activity Relationship and In Vitro Anticancer Activity of Small-Molecule Inhibitors of the Protein–Protein Interactions between AF9/ENL and AF4 or DOT1L” (Cancers, 2023)
Entries after “also recorded” stand apart in the source; their conditions may differ. Where a name gives a salt, the structure may show the parent alone.

Key:
AF9-DOT1L interaction [1] = molecular target: T1, AF9-DOT1L interaction (Homo sapiens, UniProt P42568); test: AlphaLisa assay, AF9-DOT1L interaction; format: binding; details: for IC50: read-out: IC50 (μM) against the AF9-DOT1L interaction; for inhibition at 5 µM: compound at 5 μM, read-out: % Inhibition at 5 μM against the AF9-DOT1L interaction
T1 construct: human AF9 AHD domain (475–568); made in house; host or cells: E. coli BL21(DE3)
T1 sequence (P42568 475-568): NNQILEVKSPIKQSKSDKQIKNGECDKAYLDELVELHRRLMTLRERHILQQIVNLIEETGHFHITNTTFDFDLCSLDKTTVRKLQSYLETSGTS
In short: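 AlphaLisa proximity assay using MBP-tagged human AF9 AHD (475–568, 5 nM) on anti-MBP acceptor beads and biotinylated DOT1L peptide (40 nM) on streptavidin donor beads, in PBS with 0.5% BSA, pH 7.5. Compound titrated; IC50 from dose-response fits of 3 independent experiments.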

[2] = molecular target: AF9/ENL-DOT1L interaction; parameters: method as in PMID 30258537, PMID 35612819; details: printed in Chart 1; ref [33],[34]; cited from earlier work
ENL-AF4 = molecular target: T2, ENL-AF4 (Homo sapiens, UniProt Q03111); test: AlphaLisa assay, ENL-AF4 interaction; format: binding; details: ENL AHD, AF4 peptide
T2 construct: ENL AHD domain (489–559); made in house; host or cells: E. coli BL21(DE3)
T2 sequence (Q03111 489-559): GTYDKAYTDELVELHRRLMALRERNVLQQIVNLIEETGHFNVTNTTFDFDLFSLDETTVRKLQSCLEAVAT
Description: (§1) Transcription cofactor AF4, which is the most frequent (~35%) fusion protein in MLL1-r leukemia, is another binding partner of AF9/ENL [35, 36, 37]. The AF9/ENL-AF4 interactions are essential for the formation of SEC, which causes aberrant gene expression in MLL-r leukemia and other AMLs. Using our previously developed AlphaLisa assays, selected compounds were tested for their ability to inhibit the PPIs between AF9 or ENL and AF4.
(§2) The cDNA for the human AF9 AHD domain (475–568) and ENL AHD domain (489–559) was synthesized (by Genscript, Piscataway, NJ, USA) and inserted into the pMAL c5X expression plasmid. The DOT1L peptide (Biotin-AHX-[…]) and AF4 peptide (Biotin-AHX-[…]) for the Alpha assay were purchased from Genscript.
(§3) Alpha assays were developed in our previous publication, using a Perkin-Elmer AlphaLisa anti-MBP kit, which contains streptavidin donor beads and anti-MBP acceptor beads. Briefly, the assay was performed using a MBP-protein (5 nM), a biotinylated peptide (40 nM), and increasing concentrations of a compound in 25 µL buffer (PBS with 0.5% BSA, pH 7.5) in 384-well plates according to the manufacturer’s protocol and measured with a Tecan SPARK microplate reader. Data were imported into Prism (version 5.0), and IC50 values from 3 independent experiments with standard deviation were obtained by using a standard dose-response curve fitting.

HL60 = test: Antiproliferation assay (XTT), HL60; format: cell-based; details: Homo sapiens, HL-60, 168 h, 7 days incubation, read-out: Antitumor activity EC50, HL60;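 also: EC50 values in Micromolar not Nanomolar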
Description: (§4) The antitumor activity of selected compounds was evaluated against the proliferation of a panel of MLL-r leukemia and other cancer cells. MV4;11 and Molm-13 leukemia cells contain MLL-AF4 and MLL-AF9 fusion oncogenes, respectively. NB4 and HL60 are AML cells without MLL translocation. Hela (cervical cancer) is a solid tumor cell line. […] The anti-proliferation activity of these compounds against other AML cells (i.e., NB4 and HL60) might be due to their inhibition of SEC-mediated gene expression (e.g., Myc), as observed in our previous studies.
(§5) Proliferation inhibition assays were performed using an XTT assay kit (Biotium, Fremont, CA, USA) following our previous methods. The antiproliferation EC50 values were determined using Prism 5 and the reported results were the mean values of at least three independent experiments. The incubation time for all compounds was 7 days.

NB4 = test: Antiproliferation assay (XTT), NB4; format: cell-based; details: Homo sapiens, NB-4, 168 h, 7 days incubation, read-out: Antitumor activity EC50, NB4;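 also: EC50 values in Micromolar not Nanomolar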
Description: as §4, §5

MV4;11 = test: Antiproliferation assay (XTT), MV4;11; format: cell-based; details: Homo sapiens, MV4-11, 168 h, 7 days incubation, read-out: Antitumor activity EC50, MV4;11;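 also: EC50 values in Micromolar not Nanomolar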
Description: as §4, §5

Molm13 = test: Antiproliferation assay (XTT), Molm-13; format: cell-based; details: Homo sapiens, MOLM-13, 168 h, 7 days incubation, read-out: Antitumor activity EC50, Molm13;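 also: EC50 values in Micromolar not Nanomolar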
Description: as §4, §5

AF9-DOT1L interaction [3] = molecular target: T1, AF9-DOT1L interaction; test: Pull-down assay of AF9 AHD with DOT1L peptide-coated beads; format: binding; details: for remaining activity at 10 µM / remaining activity at 50 µM: Western blot, read-out: AF9 AHD % Control; for remaining activity at 10 µM: compound 10 μM; for remaining activity at 50 µM: compound 50 μM; for Effect on AF9 AHD bound to DOT1L peptide-coated beads (in words): up to 50 µM
Text: A pull-down assay was used to confirm that the strong inhibitors could disrupt the AF9-DOT1L interaction. Streptavidin agarose beads coated with biotinylated DOT1L peptide were used to pull-down the protein AF9 AHD in the solution, followed by thorough washing, SDS-PAGE (sodium dodecyl sulfate-polyacrylamide gel electrophoresis) and Western blotting to visualize and quantitate the protein. […] This alternative, non-optical method confirmed that compounds 24 and 50 can inhibit the PPI between AF9 and DOT1L.
The pull-down assays were conducted following our previous method. Briefly, the biotinylated DOT1L peptide (0.25 mg/mL) was incubated with streptavidin agarose beads (20 μL) in PBS containing 0.1% Triton X-100 (400 µL) for 3h to yield, after washing, DOT1L-coated beads. MBP-tagged AF9 AHD (0.2 µM, 400 µL) was pre-incubated with a compound for 1 h before adding to the beads. After 6 h incubation at 4 °C, the beads were collected, thoroughly washed, and subjected to SDS-PAGE and analyzed by Western blot using an MBP antibody (#2396, Cell signaling, Danvers, MA, USA).

HoxA9, Meis1 and Myc = test: RT-qPCR of MLL target genes in Molm-13 cells; format: cell-based; details: 1 and 5 µM, 4 days
Text: The major function of the SEC is to promote transcription elongation for its bound genes. Because of the high affinity of the PPIs between AF9/ENL and AF4, onco-MLL (e.g., MLL-AF4 or MLL-AF9/-ENL) recruits SEC to MLL target genes, facilitates their expression, and eventually causes leukemia initiation. Next, we investigated whether selected inhibitors of these PPIs can inhibit the expression of HoxA9, Meis1 and Myc, which are MLL target genes and their high expression is characteristic of MLL-r leukemia. In addition, high expression of Myc is also observed in a broad range of AMLs and other cancers and is considered a driving factor for oncogenesis. To this end, RNAs from the control and compound-treated Molm-13 cells (harboring MLL-AF9) were extracted and subjected to quantitative PCR. […] RNA extraction and RT-qPCR were performed following our previous method. 10^5 cells/mL were incubated with a compound for 4 days and the RNA was extracted using an RNeasy mini kit (#74104, Qiagen, Germantown, MD, USA). 100–1000 ng of total RNA was reverse transcribed using iScript™ Reverse Transcription Supermix (Bio-Rad, Hercules, CA, USA), using the manufacturer’s protocol. Quantitative real-time PCR was carried out using Fast SYBR Green Master Mix (Applied Biosystems, Waltham, MA, USA) according to the manufacturer’s instructions. Measurements were performed in triplicate using GAPDH as the reference gene. Real-time PCR was performed using the Biosystems Step One Plus detection system. The following sequences of primers were used: […]

Hela = test: Antiproliferation assay (XTT), Hela; format: cell-based; details: Homo sapiens, HeLa, 168 h, 7 days incubation, read-out: Antitumor activity EC50, Hela
Description: as §4, §5

AF9-AF4 = molecular target: T3, AF9-AF4 (Homo sapiens, UniProt P42568); test: AlphaLisa assay, AF9-AF4 interaction; format: binding; details: AF9 AHD, AF4 peptide
T3 construct: human AF9 AHD domain (475–568); made in house; host or cells: E. coli BL21(DE3)
T3 sequence (P42568 475-568): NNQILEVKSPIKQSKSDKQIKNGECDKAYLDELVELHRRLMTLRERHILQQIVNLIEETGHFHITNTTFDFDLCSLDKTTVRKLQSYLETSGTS
Description: as §1, §2, §3

[4] = tested on: panel of MLL-r leukemia and other cancer cells; test: Antiproliferation assay (XTT), panel of MLL-r leukemia and other cancer cells; format: cell-based; details: MV4;11, Molm-13, NB4, HL60 and Hela cells, 7 days
Description: as §4, §5

[5] = MBP-protein 5 nM, biotinylated peptide 40 nM, 3 independent experiments with standard deviation

IC50 (ENL-AF4) [µM]	EC50 (HL60) [µM]	EC50 (MV4;11) [µM]	EC50 (Molm13) [µM]	remaining activity at 10 µM (AF9-DOT1L interaction [3]) [%]	remaining activity at 50 µM (AF9-DOT1L interaction [3]) [%]	EC50 (Hela) [µM]	IC50 (AF9-AF4) [µM]	IC50 ENL-AF4 (ENL-AF4)	IC50 (μM) against the AF9-DOT1L interaction (AF9-DOT1L interaction [1]; [5])	IC50 AF9-AF4 (AF9-AF4)	Structure (SMILES)	IC50 (AF9-DOT1L interaction [1]; [5]) [µM]	inhibition at 5 µM (AF9-DOT1L interaction [1]) [%]	Ki [2] [µM]	EC50 (NB4) [µM]	Effect on AF9 AHD bound to DOT1L peptide-coated beads (in words) (AF9-DOT1L interaction [3])	Expression of MLL target genes HoxA9, Meis1 and Myc (in words) (HoxA9, Meis1 and Myc)	Inhibition of tumor cell proliferation (in words) [4]
–	–	–	–	–	–	–	–	–	–	–	N#Cc1cccc(-c2ccc3cc(C(=O)NCC4CCNCC4)[nH]c3c2)c1 [Compound 10, 6-(3-Cyanophenyl)-N-(piperidin-4-ylmethyl)-1H-indole-2-carboxamide hydrochloride]	2.1	0	0.009	–	–	–	–
2.6 ± 0.3	10 ± 1.8	9.6 ± 1.2	4.7 ± 0.3	62	4	50	2.1 ± 0.3	–	–	–	Cl.O=C(NCC1CCNCC1)c1cc2ccc(-c3ccc(N4CCCCC4)cc3)cc2s1 [Compound 24, 6-(4-(Piperidin-1-yl)phenyl)-N-(piperidin-4-ylmethyl)-benzo[b]thiophene-2-carboxamide hydrochloride]	1.6 ± 0.2	–	–	5.3 ± 1.1	significantly reduced the amounts of AF9 AHD; also recorded: dose-dependently reduce AF9 AHD	inhibited expression; also recorded: able to reduce the expression	–
> 50	> 50	> 50	> 50	54	44	> 50	> 50	did not inhibit	inactive	did not inhibit	Cl.NC(=O)c1ccc(-c2ccc3cc(C(=O)NCC4CCNCC4)sc3c2)cc1 [Compound 37, 6-(4-(Carbamoyl)phenyl)-N-(piperidin-4-ylmethyl)-benzo[b]thiophene-2-carboxamide hydrochloride]	–	0	–	> 50	did not significantly affect the AF9 AHD levels; also recorded: did not significantly affect the binding	not and did not significantly affect the expression	None of these three compounds inhibited tumor cell proliferation
